Reference: patent publication US20070032529A1, “Pyrazole compounds and their use as antidiabetes agents” (Japan Tobacco Inc., priority 2005, published 2007)
Counter-ions that a name gives are not always drawn.

Biological target: T1, recombinant human liver glycogen phosphorylase (Homo sapiens, UniProt P06737)
T1 construct: made in house; host or cells: Sf9 insect cells (crude homogenate, diluted, used as the enzyme solution)
T1 sequence (P06737 1-847): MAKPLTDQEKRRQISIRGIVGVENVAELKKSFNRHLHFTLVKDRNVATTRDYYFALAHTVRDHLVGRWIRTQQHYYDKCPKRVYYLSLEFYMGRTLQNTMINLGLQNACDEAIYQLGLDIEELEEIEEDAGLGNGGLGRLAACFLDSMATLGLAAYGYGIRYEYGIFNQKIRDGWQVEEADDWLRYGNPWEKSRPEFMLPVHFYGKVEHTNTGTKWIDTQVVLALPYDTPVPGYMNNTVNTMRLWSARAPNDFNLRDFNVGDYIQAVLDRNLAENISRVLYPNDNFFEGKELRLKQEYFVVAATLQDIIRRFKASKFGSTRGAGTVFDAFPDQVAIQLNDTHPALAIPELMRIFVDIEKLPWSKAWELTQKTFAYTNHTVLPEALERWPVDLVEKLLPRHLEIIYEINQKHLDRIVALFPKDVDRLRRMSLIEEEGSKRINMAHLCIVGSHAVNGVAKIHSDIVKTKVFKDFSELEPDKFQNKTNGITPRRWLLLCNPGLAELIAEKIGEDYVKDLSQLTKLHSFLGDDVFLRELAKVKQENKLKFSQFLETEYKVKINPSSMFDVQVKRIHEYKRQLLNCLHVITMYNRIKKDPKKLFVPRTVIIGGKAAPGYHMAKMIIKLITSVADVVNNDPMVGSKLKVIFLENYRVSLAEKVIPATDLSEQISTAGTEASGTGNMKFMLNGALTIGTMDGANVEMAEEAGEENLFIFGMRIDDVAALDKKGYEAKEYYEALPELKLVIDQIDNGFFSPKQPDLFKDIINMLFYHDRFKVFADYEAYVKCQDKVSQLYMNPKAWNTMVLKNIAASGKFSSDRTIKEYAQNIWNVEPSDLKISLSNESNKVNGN
Experiment: Measuring liver glycogen phosphorylase activity (forward reaction system, NADPH absorbance at 340 nm)
Format: biochemical
Details: compound concentration 100 nmol (in parentheses)
Experimental: [Pharmacological Test] 1. Exemplary Test (1) Method for Measuring Liver Glycogen Phosphorylase Activity
The measurement of glycogen phosphorylase activity was carried out by a method using the forward reaction system.
The measurement of glycogen phosphorylase activity using the forward reaction system was carried out as follows. Glucose-1-phosphate prepared from glycogen by glycogen phosphorylase was converted into glucono-δ-lactone 6-phosphate through transphosphorylation and dehydrogenation using phosphoglucomutase and glucose-6-phosphate dehydrogenase (G6PDH). NADPH generated from NADP during the dehydrogenation by G6PDH was detected.
A homogenate of the Sf9 cells which expressed exogenously recombinant human liver glycogen phosphorylase was diluted with 100 mmol/LBES buffer solution (pH 6.8, containing 2 mmol/L EDTA) and the dilution was used as the enzyme solution of human liver glycogen phosphorylase. As the substrate, a phosphate buffer (containing 16 mmol/L KH2PO4, 24 mmol/L Na2HPO4) was used. A mixture of 8 U/mL phosphoglucomutase and 60 U/mL G6PDH was prepared in BES buffer solution. Buffer solution (containing 1.4 mmol/L NADP, 30 mmol/L MgCl2, 8 μmol/L glucose-1,6-diphosphate, 8 mg/mL glycogen, 40 mmol/LBES, 0.8 mmol/L EDTA) for reaction and a glucose solution (containing 75 mmol/L glucose, 100 mmol/LBES, 2 mmol/L EDTA) were prepared individually. The test compound was dissolved in 1% DMSO solution.
The enzymatic reaction was begun by adding 20 μL of the recombinant human liver glycogen phosphorylase solution and 20 μL of the mixture of phosphoglucomutase and G6PDH to the mixture of 20 μL of the glucose solution, 20 μL of the substrate, 100 μL of the buffer solution for reaction and 20 μL of the test compound solution. As control, 1% DMSO solution was added instead of the test compound. The mixture without the substrate was used as blank. The absorbance at 340 nm was measured immediately after the reaction started. The absorbance at 340 nm was measured again after reacting at room temperature for 75 minutes. The enzymatic activity is a value obtained by subtracting the blank variation in absorbance over 75 minutes from the variation in absorbance over 75 minutes.
The inhibition rate (%) of the test compound was calculated by the expression “(1-enzymatic activity of test compound/enzymatic activity of control)×100.”
A linear equation was determined from the two concentration points with the 50% inhibition rate therebetween, and the IC50 value was calculated from the concentration at the intersection of the line with the 50% inhibition rate.
“IC50” in the tables indicates the above-described enzyme inhibitory activity with respect to liver glycogen phosphorylase, and the activity to inhibit liver glycogen phosphorylase was represented as ++ when the IC50 value (nmol/L) was less than 100 nmol/L, as + when the IC50 value was between 100 nmol/L and 300 nmol/L. When IC50 is 300 nmol/L or more, an inhibition rate (%) at a certain concentration of the compound (I) of the present invention is shown in Tables. For example, when the inhibition rate is 20% at a concentration of 300 nmol, the rate is described as 20% (300).

Compound | inhibition rate (%) at a certain concentration
CCOC(=O)C(C)(C)c1cnc(NC(=O)c2cc(NC(=O)c3cc(F)c(F)cc3Cl)[nH]n2)c(OCC)c1 [Example 1-149] | 20.8%(100)
CCOc1cc(C(C)(C)C(=O)O)cnc1NC(=O)c1cc(NC(=O)c2cc(F)c(F)cc2Cl)[nH]n1 [Example 1-151] | 13.3%(100)

Same assay, conditions: compound concentration 100 nmol (in parentheses); read-out: inhibition rate (%) at a certain concentration

inhibition at 0.1 µM [%] | Compound
43.1 | C[C@@H](NC(=O)c1cc(NC(=O)c2cc(F)c(F)cc2Cl)[nH]n1)c1ccccc1 [Example 2-20]
5.7 | C[C@H](NC(=O)c1cc(NC(=O)c2cc(F)c(F)cc2Cl)[nH]n1)c1ccccc1 [Example 2-21]
36.4 | CC(NC(=O)c1cc(NC(=O)c2cc(F)c(F)cc2Cl)[nH]n1)c1cccnc1 (stereo not drawn) [Example 2-26]
45.8 | O=C(NCc1cccc(-c2ccccc2)c1)c1cc(NC(=O)c2cc(F)c(F)cc2Cl)[nH]n1 [Example 2-29]
1.8 | O=C(N[C@@H]1c2ccccc2C[C@@H]1O)c1cc(NC(=O)c2cc(F)c(F)cc2Cl)[nH]n1 [Example 2-30]
5.5 | O=C(N[C@H]1c2ccccc2C[C@H]1O)c1cc(NC(=O)c2cc(F)c(F)cc2Cl)[nH]n1 [Example 2-31]

Continued, compound first:

Compound | inhibition at 0.1 µM [%]
O=C(NCCc1cccnc1)c1cc(NC(=O)c2cc(F)c(F)cc2Cl)[nH]n1 [Example 1-140] | 30.8
O=C(NCCc1ccncc1)c1cc(NC(=O)c2cc(F)c(F)cc2Cl)[nH]n1 [Example 1-141] | 31.4
O=C(Nc1cnccn1)c1cc(NC(=O)c2cc(F)c(F)cc2Cl)[nH]n1 [Example 1-144] | 5
O=C(Nc1cccc2ncccc12)c1cc(NC(=O)c2cc(F)c(F)cc2Cl)[nH]n1 [Example 1-145] | 12.8
O=C(Nc1cccc2cccnc12)c1cc(NC(=O)c2cc(F)c(F)cc2Cl)[nH]n1 [Example 1-146] | 11.3
O=C(Nc1cccc2cnccc12)c1cc(NC(=O)c2cc(F)c(F)cc2Cl)[nH]n1 [Example 1-147] | 9.6
CCOC(=O)C(C)(C)c1cnc(NC(=O)c2cc(NC(=O)c3cc(F)c(F)cc3Cl)[nH]n2)c(OCC)c1 [Example 1-148] | 14.1
CCOc1cc(C(C)(C)C(=O)O)cnc1NC(=O)c1cc(NC(=O)c2cc(F)c(F)cc2Cl)[nH]n1 [Example 1-150] | 13.8

Same assay, conditions: compound concentration 300 nmol (in parentheses); read-out: inhibition rate (%) at a certain concentration

Compound | inhibition at 0.3 µM [%]
CN(C(=O)c1cc(NC(=O)c2cc(F)c(F)cc2Cl)[nH]n1)c1cccc(C(=O)O)c1 [Example 2-14] | 37.5

Same assay, conditions: compound concentration 490 nmol (in parentheses); read-out: inhibition rate (%) at a certain concentration

Compound | inhibition at 0.49 µM [%]
CN(Cc1ccccc1)C(=O)c1cc(NC(=O)c2cc(F)c(F)cc2Cl)[nH]n1 [Example 3-1, 5-(2-chloro-4,5-difluoro-benzoylamino)-1H-pyrazole-3-carboxylic acid benzyl-methyl-amide] | 50

Same assay, conditions: compound concentration 640 nmol (in parentheses); read-out: inhibition rate (%) at a certain concentration

Compound | inhibition at 0.64 µM [%]
O=C(Nc1ccccc1)c1cc(NC(=O)c2cc(F)c(F)cc2Cl)[nH]n1 [Example 3-3] | 50

Same assay, conditions: compound concentration 1000 nmol (in parentheses); read-out: inhibition rate (%) at a certain concentration

Compound | inhibition at 1 µM [%]
O=C(Nc1cc(C(=O)N2CCCCC2)n[nH]1)c1cc(F)c(F)cc1Cl [Example 3-5] | 41.1

Same assay, conditions: enzyme inhibitory activity with respect to liver glycogen phosphorylase; class symbols

IC50 [nM] | Compound
< 100 | CS(=O)(=O)Nc1ccc(CNC(=O)c2cc(NC(=O)c3cc(F)c(F)cc3Cl)[nH]n2)cc1 [Example 2-16]
< 100 | CC(=O)Nc1cccc(CNC(=O)c2cc(NC(=O)c3cc(F)c(F)cc3Cl)[nH]n2)c1 [Example 2-17]
< 100 | CC(=O)Nc1ccc(CNC(=O)c2cc(NC(=O)c3cc(F)c(F)cc3Cl)[nH]n2)cc1 [Example 2-18]
< 100 | O=C(NCc1csc(-c2ccccc2)n1)c1cc(NC(=O)c2cc(F)c(F)cc2Cl)[nH]n1 [Example 2-19]
< 100 | O=C(NCc1ccc(Oc2ccccc2)nc1)c1cc(NC(=O)c2cc(F)c(F)cc2Cl)[nH]n1 [Example 2-22]
< 100 | O=C(NCc1ccc(-c2ccccc2)nc1)c1cc(NC(=O)c2cc(F)c(F)cc2Cl)[nH]n1 [Example 2-32]
< 100 | Cc1ccc(CNC(=O)c2cc(NC(=O)c3cc(F)c(F)cc3Cl)[nH]n2)c(=O)[nH]1 [Example 2-33]

Continued, compound first:

Compound | IC50 [nM]
O=C(NCc1ccc(-c2csnn2)cc1)c1cc(NC(=O)c2cc(F)c(F)cc2Cl)[nH]n1 [Example 1-142] | < 100
O=C(NCc1cnccn1)c1cc(NC(=O)c2cc(F)c(F)cc2Cl)[nH]n1 [Example 1-152] | < 100
O=C(NCc1ccc(N2CCSCC2)nc1)c1cc(NC(=O)c2cc(F)c(F)cc2Cl)[nH]n1 [Example 1-153] | < 100
O=C(NCc1ccc(N2CCS(=O)(=O)CC2)nc1)c1cc(NC(=O)c2cc(F)c(F)cc2Cl)[nH]n1 [Example 1-154] | < 100
O=C(NCc1cc(Br)c(Br)s1)c1cc(NC(=O)c2cc(F)c(F)cc2Cl)[nH]n1 [Example 1-155] | < 100
O=C(NCc1ccc(Cl)s1)c1cc(NC(=O)c2cc(F)c(F)cc2Cl)[nH]n1 [Example 1-156] | < 100
CCc1nc(C)oc1CNC(=O)c1cc(NC(=O)c2cc(F)c(F)cc2Cl)[nH]n1 [Example 1-157] | < 100
CCc1nc(C)c(CNC(=O)c2cc(NC(=O)c3cc(F)c(F)cc3Cl)[nH]n2)o1 [Example 1-158] | < 100
O=C(NCc1ccc(-c2cccs2)s1)c1cc(NC(=O)c2cc(F)c(F)cc2Cl)[nH]n1 [Example 1-159] | 100 to 300
COc1ccsc1CNC(=O)c1cc(NC(=O)c2cc(F)c(F)cc2Cl)[nH]n1 [Example 1-160] | < 100
O=C(NCc1cc(Cl)c(Cl)s1)c1cc(NC(=O)c2cc(F)c(F)cc2Cl)[nH]n1 [Example 1-161] | < 100
Cc1nc(CNC(=O)c2cc(NC(=O)c3cc(F)c(F)cc3Cl)[nH]n2)c(C)o1 [Example 1-162] | < 100
CCCCCCc1nc(C)c(CNC(=O)c2cc(NC(=O)c3cc(F)c(F)cc3Cl)[nH]n2)o1 [Example 1-163] | < 100
COc1cscc1CNC(=O)c1cc(NC(=O)c2cc(F)c(F)cc2Cl)[nH]n1 [Example 1-164] | < 100
Cc1nc(-c2ccccc2)oc1CNC(=O)c1cc(NC(=O)c2cc(F)c(F)cc2Cl)[nH]n1 [Example 1-165] | < 100
Cc1nc(-c2ccccc2)c(CNC(=O)c2cc(NC(=O)c3cc(F)c(F)cc3Cl)[nH]n2)o1 [Example 1-166] | < 100
CCCCCCc1nc(C)oc1CNC(=O)c1cc(NC(=O)c2cc(F)c(F)cc2Cl)[nH]n1 [Example 1-167] | < 100
O=C(NCc1nnc[nH]1)c1cc(NC(=O)c2cc(F)c(F)cc2Cl)[nH]n1 [Example 2-2-1, 5-(2-chloro-4,5-difluoro-benzoylamino)-1H-pyrazole-3-carboxylic acid (4H-[1,2,4]triazol-3-ylmethyl)-amide dihydrochloride] | < 100
